According to US20200199174A1, “NOVEL FLUORESCENT LABELING METHOD” (priority 2017, published 2020):

How the values were obtained:
[1] = test system: 5D4 fusion proteins in HeLa cells; experiment: Fluorescent labeling of 5D4 fusion proteins expressed in HeLa cells (live cell imaging); format: cell-based
Method: HEK293T cells and HeLa cells were cultured in Dulbecco's Modified Eagle's Medium (DMEM, Wako) including 10% fetal bovine serum (FBS, SIGMA) at a carbon dioxide concentration of 5% and a temperature of 37° C.
Gene transfer into HeLa cells was performed using lipofection. For the HeLa cells under culture in a 24-well dish, 25 μL of Opti-MEM I (GIBCO) to which 0.5 μg of a plasmid had been added was added to a mixed solution of 2 μL of Lipofectamine 2000 (Invitrogen) and 25 μL of Opti-MEM I and incubated for five minutes at room temperature. This mixture was added to 500 μL of a medium 90-100% confluent with HEK293T cells and HeLa cells, and culturing was performed at 37° C. at a carbon dioxide concentration of 5%. Cell concentration was diluted to 1/10 5 to 8 hours after transfection, and cells were re-seeded on a glass dish. Cells were subjected to various imaging experiments after 24 hours had passed since transfection.
Cells were observed using an inverted microscope (IX-71, Olympus) provided with a xenon arc lamp. Images were captured using an EM-CCD camera (iXon EM+, Andor). During acquisition of a 6SiR-DNP fluorescence image, a Cy5-4040C filter set (Semrock) comprising a 608-648 nm excitation light filter, a 660 nm dichroic mirror, and a 672-712 nm absorption filter was used.
During acquisition of a CFP fluorescence image, a U-MCFPHQ filter set (Olympus) comprising a 424-438 nm excitation light filter, a 450 nm dichroic mirror, and a 460-510 nm absorption filter was used. An objective lens (10×NA 0.3, 20×NA 0.75: Olympus) was used for the screening in FIG. 3, and an oil immersion objective lens (100× NA 1.4: Olympus) was used in the observations in FIGS. 5, 8, 9, and 10.
The HeLa cell medium was drawn up and washed with HBS buffer solution (25 mM HEPES, 125 mM NaCl, 2.5 mM KCl, 2 mM CaCl2, 1 mM MgCl2, and 25 mM D-glucose; pH 7.4), and cells were then observed in the HBS buffer solution including 6SiR-DNP at a concentration of 100 nM or 10 nM. Image capture was started 5 minutes after the 6SiR-DNP was added. Images were analyzed using ImageJ (NIH).
5D4 expressed at an arbitrary site in a cell was labeled with 6SiR-DNP, and the ability to observe a fluorescence image using a fluorescence microscope was investigated. When cells expressing only ECFP were loaded with 6SiR-DNP (FIG. 8A), and when ECFP to which 5D4 was added was expressed in cells but the cells were not loaded with 6SiR-DNP, a fluorescence signal due to 6SiR-DNP was not observed (FIG. 8B).
Using a β-tubulin protein as an observation object, a 5D4 fusion protein expression construct was transgenically introduced into a Hela cell. […] An attempt was also made to observe b-actin in the cell. When a fusion protein of β-actin and 5D4 was expressed in a HeLa cell and the cell was observed, a fibrous structure characteristic of β-actin was observed (FIG. 9B). In order to visualize F-actin internal to the cell, an expression construct in which a peptide sequence (Lifeact sequence) for specifically binding to F-actin was added to the N-terminus of 5D4 was transgenically introduced into a HeLa cell. A characteristic fibrous structure was observed that was similar to the structure observed when a fusion protein of β-actin and 5D4 was expressed in the cell (FIG. 9C).

[2] = test system: ECFP-5D4 (Y96F) with endoplasmic reticulum localization signal in HeLa cells; experiment: Super-resolution imaging by single-molecule localization; format: cell-based; details: 10 nM probe, 640 nm laser, relative to normal fluorescence microscope image
Method: An ECFP-5D4 (Y96F) expression plasmid (pECFP-5D4 (Y96F)-ER) to which an endoplasmic reticulum localization signal sequence was added was introduced to HeLa cells cultured on a 96-well plate, using Lipofectamine 2000. At 20 hours after plasmid introduction, the cells were treated with trypsin/EDTA and stripped, and then re-seeded on a cover glass coated with collagen/poly-L-lysine. At 20 hours after re-seeding, the cells were washed with HBS, loaded with 10 nM 6SiR-DNP, and subjected to super-resolution imaging. A specimen was excited using a 640 nm semiconductor laser, and fluorescence intermittency images of a single molecule were continuously acquired at an exposure of 16 milliseconds by a backside-illuminated cooled EM-CCD camera (iXon, Andor Technology). A centroid position of a bright point of single-molecule fluorescence in each image was determined, and a super-resolution image was reconstructed.

5D4 = experiment: Fluorescence change characteristics of fluorophore-DNP pair in presence and absence of 5D4; format: biochemical, mouse
Method: The anti-DNP scFv was expressed and purified as a fusion protein of maltose-binding protein. Escherichia coli BL21 (DE3) was transformed with the pMalc5E vector (pMalc5E-scFv) into which the purification object scFv sequence was introduced, and was cultured overnight on an LB medium plate including 100 μg/mL of ampicillin. A single colony was picked up and cultured overnight in 5 mL of a liquid LB medium including 100 μg/mL of ampicillin, and 1 mL of the resultant culture liquid was transferred to 100 mL of LB medium including 100 μg/mL of ampicillin. Shake culturing was performed at 200 rpm and a temperature of 37° C. until an optical density at 600 nm of 0.8 was reached, and after shake culturing was performed for 30 minutes at 15° C., IPTG was added to give a final concentration of 0.5 mM, and shake culturing was continued overnight. The E. coli were recovered after culturing and were disrupted using a sonicator. […] An eluate was replaced with PBS, and yield was quantified by the Bradford method, after which the eluate was subjected to the measurements described below.
RNA was extracted from the hybridomas of the resultant four clones, and cDNA fragments of the variable regions of the light chains and heavy chains of monoclonal antibodies were obtained by reverse transcription. The cDNA fragments of the variable regions of the light chains and heavy chains were connected via a linker sequence by overlap PCR, and scFv constructs were constructed only from subclones (4E10 and 5D4) derived from wells 1E10 and 3B12, respectively. […] The nucleic acid sequence of the cDNA sequence coding for 5D4 was identified by sequencing (SEQ ID NO: 8), an amino acid sequence determined from the result thereof was analyzed using the IMGT database (http://www.imgt.org/), and a […] region was specified (FIG. 4).
This fluorescence characteristic is similar to that of Cy5 dye, which is widely used in fluorescence imaging in cells. In the presence of 5D4, the fluorescence intensity of 6SiR-DNP was increased by a factor of 98 relative to the fluorescence intensity thereof in the absence of 5D4 (FIG. 6B). When fluorescence quantum yield of 6SiR-DNP in a state in which 6SiR-DNP is bound to 5D4 was measured, the fluorescence quantum yield in the presence of an excess of 5D4 was 0.57. This value for the fluorescence quantum yield is large, and is equal to or greater than that of Cy5 (quantum yield=0.2-0.4) and Cy5.5 (quantum yield=0.24), which are also highly versatile fluorescent dyes in cell labeling experiments (Q. Zheng et al., Ultra-stable organic fluorophores for single-molecule research. Chem Soc Rev 43, 1044-1056 (2014).).

[3] = test system: HeLa cells expressing ECFP-5D4; experiment: Long-term-stable fluorescence imaging based on tag/probe binding/dissociation equilibrium; details: 10 nM probe in extracellular fluid, whole cell irradiated with intense excitation light
Method: HeLa cells expressing ECFP-5D4 were immersed for one hour at room temperature in HBS including 10 nM 6SiR-pCOONHMeoNP, and fluorescence imaging thereof was performed without modification of this state with the probe present at a concentration of 10 nM in the extracellular fluid. […] In super-resolution imaging and other fluorescence observation in which photobleaching has hitherto been a serious problem, the tag/probe method developed herein has the revolutionary characteristic of making it possible to obtain a semi-permanent fluorescence signal without limitation by photobleaching.

Row | SMILES | fluorescent labeling at targeted intracellular sites ([1]; ECFP-5D4 with localization peptide for nucleus, cell membrane, endoplasmic reticulum, final concentration 0.1 μM) | fluorescence image of STIM1-5D4 fusion protein ([1]; HeLa cell stained with 6SiR-DNP) | fluorescence image of tubulin-5D4 fusion protein ([1]; HeLa cell, 6SiR-DNP present in the extracellular fluid) | 6SiR-DNP fluorescence signal ([1]; HeLa cells expressing 5D4 as fusion protein with ECFP) | fluorescence signal due to 6SiR-DNP ([1]; cells expressing only ECFP loaded with 6SiR-DNP) | super-resolution image of endoplasmic reticulum [2] | fluorescence quantum yield (5D4; bound to 5D4, in the presence of an excess of 5D4) | fluorescence intensity increased by a factor relative to absence of 5D4 (5D4; in the presence of 5D4) | absorption maximum (5D4; when 5D4 was present) [nm] | fluorescence maximum (5D4; when 5D4 was present) [nm] | fluorescence signal after photobleaching [3]
1 | CN(C)c1ccc2c(c1)[Si](C)(C)C1=CC(=[N+](C)C)C=CC1=C2c1cc(C(=O)NCCOCCOCCNc2ccc([N+](=O)[O-])cc2[N+](=O)[O-])ccc1C(=O)[O-] [Probe 6SiR-DNP, 2-(7-(dimethylamino)-3-(dimethylimino)-5,5-dimethyl-3,5-dihydrodibenzo[b,e]silin-10-yl)-4-((2-(2-(2-((2,4-dinitrophenyl)amino)ethoxy)ethoxy)ethyl)carbamoyl)benzoate] | fluorescent labeling at the targeted intracellular sites was accomplished for all the cells | a structure running along the endoplasmic reticulum and microtubules was observed | a fibrous structure characteristic of tubulin was observed | observed covering the entire cytoplasm | not observed | visualized with high spatial resolution | 0.57 | 98 | 653 | 668 | –
2 | CNC(=O)c1ccc(NCCOCCOCCNC(=O)c2ccc(C(=O)[O-])c(C3=C4C=CC(=[N+](C)C)C=C4[Si](C)(C)c4cc(N(C)C)ccc43)c2)c([N+](=O)[O-])c1 [6SiR-pCOONHMeoNP, 2-(7-(dimethylamino)-3-(dimethylimino)-5,5-dimethyl-3,5-dihydrodibenzo[b,e]silin-10-yl)-4-((2-(2-(2-((4-(methylcarbamoyl)-2-nitrophenyl)amino)ethoxy)ethoxy)ethyl)carbamoyl)benzoate] | – | – | – | – | – | – | – | – | – | – | recovery of the fluorescence signal after photobleaching was observed
